Data set [1] relates to BEAS-2B cells. The conditions noted are these: uninfected BEAS-2B cells, highest concentration assessed 10 μM, tox = less than 50% cell viability after 44 hours at ≤10 μM; for CC50: read-out: CC50 (PrestoBlue cell viability).
The subject of data set [2] is recIAV WSN-NanoLuc. Briefly: microbe, parasite or virus in culture. The conditions noted are these: Influenza A virus, BEAS-2B, 40 h, read-out: % Inhibition (anti-IAV). Format: cell-based.
For data set [3], the system named is recRSV A2-L19FD489E-fireSMASh. The conditions noted are these: for EC50: read-out: EC50 RSV A2-L19FD489E-fireSMASh.
The nature of data set [4]: in vitro. The conditions noted are these: human.
Data set [5] relates to recIAV WSN-NanoLuc. As to conditions: for EC50: read-out: EC50 IAV WSN-nanoLuc.
For data set [6], the system named is recIAV WSN-NanoLuc. Description: microbe, parasite or virus in culture. As to conditions: Influenza A virus, BEAS-2B, read-out: EC50 IAV WSN-nanoLuc.
The test system of data set [7] is recRSV A2-L19F-renilla. Briefly: microbe, parasite or virus in culture. Format: cell-based. As to conditions: human respiratory syncytial virus, BEAS-2B, read-out: EC50 RSV A2-L19F-renilla.

Data on 18 compounds can be found in PMC4719150 (Biochemistry, 2015).

Read-outs that look alike come from different tables or passages of the source.

By inhibition is commonly meant the relative decrease from the control value, in per cent. Broadly, the EC50 is the concentration that produces a half-maximal response.

On to `Nc1nc2c(c(=O)[nH]1)C[C@@H](CCc1ccc(C(=O)N[C@@H](CCC(=O)O)C(=O)O)cc1)CN2` [Lometrexol], for which the “CC50 (PrestoBlue cell viability)” value in data set [1] is on record as “tox^d”.
Regarding `CN(Cc1cnc2nc(N)nc(N)c2n1)c1ccc(C(=O)N[C@@H](CCC(=O)O)C(=O)O)cc1` [Methotrexate], the inhibition at 5 µM in data set [2] worked out at 100 ± 0.6%.
Take `CCOC(=O)C1=C(C)NC(C)=C(C(=O)OC)C1c1cccc([N+](=O)[O-])c1` (centres unmarked) [Nitrendipine]: the “EC50 RSV A2-L19FD489E-fireSMASh” value in data set [3] is “inactive^e”. In addition, the CC50 in data set [4] is above 10 µM. Further, the “EC50 IAV WSN-nanoLuc” value in data set [5] is “inactive^e”.
In the case of `Cn1c(=O)c(-c2c(Cl)cccc2Cl)cc2cnc(Nc3ccc(N4CCOCC4)cc3)nc21` [PD173952], in data set [1], the “CC50 (PrestoBlue cell viability)” value was “tox^d”.
On to `CCN(CC)CCOc1ccc(Nc2ncc3cc(-c4c(Cl)cccc4Cl)c(=O)n(C)c3n2)cc1` [PD-166285], for which the “CC50 (PrestoBlue cell viability)” value in data set [1] is “tox^d”.
With `Nc1nc2c(ncn2CCOCP(=O)(O)O)c(=O)[nH]1` [PMEG], the CC50 in data set [1] turned out to be 10 µM. Also, in data set [3], the “SI RSV [CC50/EC50]” value was “SIIAV 50 SIRSV 100 HPV [67]”, the “potency against RSV relative to IAV” value is recorded as “approximately 2 fold” and the EC50 was 0.1 µM. Moreover, in data set [5], the “SI IAV [CC50/EC50]” value was “SIIAV 50 SIRSV 100 HPV [67]” and the EC50 amounted to 0.2 µM.
With `c1cnc2c(c1)ccc1cccnc12` [Phenanthroline], the CC50 in data set [4] was found to be 2.4 µM.
Take `Cc1nc2ccc(CN(C)c3ccc(C(=O)N[C@@H](CCC(=O)O)C(=O)O)s3)cc2c(=O)[nH]1` [Raltitrexed]: in data set [2], the inhibition at 5 µM is 60 ± 6.5%.
`NC(=O)c1ncn([C@@H]2O[C@H](CO)[C@@H](O)[C@H]2O)n1` [Ribavirin]: the EC50 was 4.5 µM in data set [6] and 2.9 µM in data set [7]. Further, the “SI RSV [CC50/EC50]” value in data set [3] is “SIIAV >2.2 SIRSV >3.9 broad spectrum [84]”. In addition, the CC50 in data set [4] is above 10 µM. Moreover, in data set [5], the “SI IAV [CC50/EC50]” value is “SIIAV >2.2 SIRSV >3.9 broad spectrum [84]”.
Turning to `CN(CCOc1ccc(CC2SC(=O)NC2=O)cc1)c1ccccn1` (centres unmarked) [Rosiglitazone], in data set [2], the inhibition at 5 µM was 35 ± 5%.
On to `C[n+]1cc2c3c(ccc2c2ccc4cc5c(cc4c21)OCO5)OCO3` [Sanguinarine], for which the “CC50 (PrestoBlue cell viability)” value in data set [1] is “tox^d”.
`O=[N+]([O-])c1ccc2c(c1)S(=O)(=O)C=C2` [Stattic]: in data set [1], the CC50 was 10 µM. Also, the 50% effective concentration (EC50) in data set [3] is 5.9 µM; in data set [5], 3.3 µM. The “SI IAV [CC50/EC50]” value in data set [5] is recorded as “SIIAV 3”.
Take `CCN(CC)CCNC(=O)c1c(C)[nH]c(/C=C2\C(=O)Nc3ccc(F)cc32)c1C` [Sunitinib]: the “CC50 (PrestoBlue cell viability)” value in data set [1] is “tox^d”.
Take `Cn1nnc2c(C(N)=O)ncn2c1=O` [Temozolomide]: in data set [2], the inhibition at 5 µM stood at 55 ± 3.2%.
Regarding `Nc1nc(N)c2nc(-c3ccccc3)c(N)nc2n1` [Triamterene], the “EC50 RSV A2-L19FD489E-fireSMASh” value in data set [3] was “inactive^e”. This compound also came in with a CC50 in data set [4] above 10 µM. The “EC50 IAV WSN-nanoLuc” value in data set [5] is “inactive^e”.
As for `CC(C)[C@]12O[C@H]1[C@@H]1O[C@]13[C@]1(O[C@H]1C[C@H]1C4=C(CC[C@@]13C)C(=O)OC4)[C@@H]2O` [Triptolide], the results for the EC50 in data set [6] and in data set [7] were 0.15 µM and 0.6 µM, respectively. The same compound returned a CC50 in data set [4] of 0.3 µM. In data set [5], the “SI (CC50/EC50) value at dose-response testing” value is on record as “below two”. Moreover, in data set [2], the inhibition at 5 µM came to 103 ± 1.2%.
With `CC[C@]1(O)C[C@H]2CN(CCc3c([nH]c4ccccc34)[C@@](C(=O)OC)(c3cc4c(cc3OC)N(C=O)[C@H]3[C@@](O)(C(=O)OC)[C@H](OC(C)=O)[C@]5(CC)C=CCN6CC[C@]43[C@@H]65)C2)C1` [Vincristine], in data set [2], the inhibition at 5 µM stood at 50 ± 2.9%.
Consider `CC(=O)N[C@H]1[C@H]([C@H](O)[C@H](O)CO)OC(C(=O)O)=C[C@@H]1N=C(N)N` [Zanamivir], for which the EC50 in data set [6] was found to be 0.02 µM. In data set [3], the “EC50 RSV A2-L19FD489E-fireSMASh” value is recorded as “Inactive”. This compound displayed a CC50 in data set [4] above 10 µM. Also, in data set [5], the “SI IAV [CC50/EC50]” value was “SIIAV >500 IAV inhibitor [83]”.
